A short description of data set [1]: UV-Vis absorption spectra of trans and cis isomers (λstrong, εE, λiso). The data set is classed as physicochemical. The conditions noted are these: PBS pH = 7.4, 20% MeCN. The method, then:
A(λmeas, λirrad) is used to indicate the measured UV-Vis absorption spectrum in the range 340 nm<λmeas<650 nm, as a function of the irradiating wavelength λirrad once PSS(λirrad) has been established. UV-Vis measurement of A(λmeas, λirrad) was performed. It was considered that the PSS had been established when the absorbance profile ceased to alter under continued irradiation. An isosbestic point (wavelength λiso) was found for each compound by examining where the absorption A(λmeas) was invariant with respect to changing λirrad. A(λmeas, dark) was also acquired with samples that had been kept in the dark for at least several hours, and it was assumed that no significant spectral contribution from the cis isomer was present in these spectra. […]
HPLC (high-performance liquid chromatography) was then used as described in Part A to measure ε*E(λ) and ε*Z(λ) (the separated absorption profiles of trans and cis isomers respectively, in arbitrary units which are not intercomparable in an absolute sense). It was approximated that these spectra would be identical in shape if measured under the UV-Vis conditions, so once ε*E(λ) and ε*Z(λ) were scaled appropriately relative to each other, these scaled spectra could be used to deconvolute A(λmeas, λirrad). This approximation was considered useful especially in the regions of greatest spectral interest, ie. regions of relatively strong absorption (since only rather well-absorbed wavelengths will allow significant photoisomerisation under finite photon flux). To place the arbitrary-unit absorption spectra on an absolute scale, the maximal absorption wavelength λstrong of the trans-isomer was first selected by examining A(λmeas, dark): typically, λstrong≈380 nm. with Expressing A(λstrong, dark) in units M^−1cm^−1, ε*E(λstrong) was then scaled so that εE(λstrong)=A(λstrong, dark), giving:
εE(λ)=ε*E(λ)×[A(λstrong,dark)/ε*E(λstrong)]
and the isosbestic point was used to scale the cis-isomer spectrum as per:
εZ(λ)=ε*Z(λ)×[εE(λiso)/ε*Z(λiso)]
However, using A(λstrong, dark) was preferred, since A(λiso) was typically so much smaller that the standard deviation in the scaled absorptivities which it generated was far greater.
Absorption spectra in cuvette (“UV-Vis”) were acquired on a Varian CaryScan 50 (1 cm, 100 μL or 1 mL volume) with Peltier cell temperature control unit maintained at 37° C., in PBS at pH˜7.4 containing a low percentage of cosolvent if needed (typically 2% MeCN or 5% DMSO). A ThorLabs Polychrome V monochromator with a fibre optic cable output directed into the cuvette was used to perform photoisomerisation studies by UV-Vis spectrophotometry although single LEDs of approximately 10-20 mW output, 15-20° cone angle, and 10-15 nm bandwidth FWHM, obtained commercially from Roithner Lasertechnik GmbH, were equally successful in providing repeatable monochromatic photoisomerisation. Separated spectra of trans and […] forms were acquired from the inline Diode Array Detector on the AGILENT 1260 SL coupled LC-MS system after HPLC separation. Fluorescence spectrophotometry (excitation and emission spectra) were acquired on a Varian CaryEclipse fluorescence spectrophotometer.
By the above procedure, the trans- and cis-isomers of each species were separated by HPLC as described in Part A, and ε*E(λ) and ε*Z(λ) were measured on the inline ultraviolet/visible Diode Array Detector; these were then scaled as outlined above. The parameters λstrong, εE(λstrong) and λiso are tabulated for selected compounds below (Table 1).

The nature of data set [2]: thermal reversion halflife of spontaneous cis->trans isomerisation. The format is physicochemical. The settings on record: PBS pH = 7.4, 20% MeCN. From the text:
Finally, trends in τ were ascertained by establishing the PSS at λstrong, then turning off the light source at time t0, and measuring A(λstrong, t) over time. Data were acquired for half an hour, or else the first three halflives (whichever was the shorter period), then fitted to the equation:
A(λstrong,t)=A(λstrong,dark)−[A(λstrong,dark)−A(λstrong,t0)]×e^−kt
This fit was used to return an in vitro halflife τ* for the cis->trans spontaneous thermal reversion isomerisation process, defined as τ=ln 2/k. It should be noted however, that azoaryl compounds' thermal reversion rates are known to depend strongly upon their microenvironment, such as pH and solvent/solvation effects^[7,38]. This was shown for compound (I.1), where a change of only 1.4 pH units gave a 25% change in τ*; note that different compounds are expected to respond very differently to changes in pH so no unifying trends are expected. Therefore the τ* acquired in vitro were considered appropriate only for qualitative intercomparison between samples (trend of τ* vs structure), rather than quantitative prediction of the τ values which might be experienced in cellulo or in vivo. Indeed, these in vitro τ* values appeared at least three times longer than what would have been expected based on in cellulo experiments where the pause time between activating pulses was varied.
Thermal reversion times were measured as described above. Those for selected compounds are presented below (Table 2).

For a further data set, the system named is HeLa cells. The data set is described as follows: cytotoxicity by crystal violet staining. The format is cell-based. The conditions noted are these: 40 h. How it is done:
Seven of the compounds according to the invention were selected for biological tests. Their cytotoxicity was assessed using crystal violet staining as adapted from standard procedure^[31]. Briefly, HeLa cells were seeded on 96-well plates, treated with the given concentrations of the selected compound, and exposed or not to the pulse protocol of illumination with light at 390 nm (pulses of 75 ms every 15 s). After 40 h cells were stained with crystal violet solution (0.5% crystal violet in 20% methanol) for 10 min. Unbound crystal violet was removed by rinsing with distilled water and cells were air-dried. Crystal violet was subsequently eluted from cells with 0.1 M sodium citrate in 50% ethanol. The absorbance of crystal violet is proportional to the cell number and was determined at 590 nm with a FLUOstar Omega microplate reader (BMG Labtech).
Each compound was tested at 6 doses: 100 nM, 500 nM, 1 μM, 2 μM, 5 μM and 10 μM. In order to ensure their solubility in the cell culture media, DMSO was used as a co-solvent, and to provide comparability between all samples the volume of DMSO was adjusted to obtain its final concentration as 1% in the cell culture media for all the compounds at all concentrations tested.
Results presented in Table 4 below are expressed as a fold growth relative to the control growth of the cells treated only with a co-solvent (1% DMSO), and are represented as a mean value from triplicates coming from a representative experiment.

Where [3] appears, read: 100 nM, 390 nm (75 ms every 15 s).
Setting [4] is: 500 nM, 390 nm (75 ms every 15 s).
The mark [5] stands for this setting: 1 μM, 390 nm (75 ms every 15 s).
[6] abbreviates: 2 μM, 390 nm (75 ms every 15 s).
Where [7] appears, read: 5 μM, 390 nm (75 ms every 15 s).
[8] abbreviates: 10 μM, 390 nm (75 ms every 15 s).

Take `COc1ccc(N=Nc2cc(OC)c(OC)c(OC)c2)cc1N` [I.2, 2-methoxy-5-((3,4,5-trimethoxyphenyl)diazenyl)aniline]: the “εE(λstrong)” value in data set [1] stood at 11400 M⁻¹ cm⁻¹. Also, in data set [1], the λiso came out at 470 nm. In data set [1], this compound gave a λstrong of 365 nm. Besides, the “τ, reversion time” value in data set [2] is 0.75 min. Moreover, the mean fold growth in the data set with HeLa cells (setting [3]) stood at 1.10 fold; in the data set with HeLa cells (100 nM, Dark), 0.97 fold; in the data set on HeLa cells (setting [4]), 0.83 fold; in the data set with HeLa cells (500 nM, Dark) it was 0.90 fold; with HeLa cells (setting [5]), 0.50 fold; in the data set with HeLa cells (1 μM, Dark), 0.89 fold. The mean fold growth with HeLa cells (setting [6]) turned out to be 0.47 fold; in the data set on HeLa cells (2 μM, Dark) it was 0.81 fold; in the data set with HeLa cells (setting [7]) it was 0.32 fold; in the data set with HeLa cells (5 μM, Dark), 0.86 fold; in the data set on HeLa cells (setting [8]), 0.34 fold; in the data set with HeLa cells (10 μM, Dark), 0.70 fold.
Turning to `COc1ccc(N=Nc2cc(OC)c(OC)c(OC)c2)cc1F` [I.3, 1-(3-fluoro-4-methoxyphenyl)-2-(3,4,5-trimethoxyphenyl)diazene], in data set [1], the “εE(λstrong)” value came out at 13300 M⁻¹ cm⁻¹. This compound also had a λiso in data set [1] of 445 nm. The same compound registered a λstrong in data set [1] of 365 nm. For the same compound, in data set [2], the “τ, reversion time” value came out at 61 min. The mean fold growth in the data set on HeLa cells (setting [3]) is given as 0.93 fold; with HeLa cells (100 nM, Dark), 1.03 fold; with HeLa cells (setting [4]), 0.88 fold; in the data set on HeLa cells (500 nM, Dark), 1.00 fold; in the data set on HeLa cells (setting [5]), 0.82 fold; with HeLa cells (1 μM, Dark), 0.95 fold. The mean fold growth stood at 0.62 fold in the data set with HeLa cells (setting [6]); 0.90 fold with HeLa cells (2 μM, Dark); 0.39 fold with HeLa cells (setting [7]); 0.96 fold in the data set on HeLa cells (5 μM, Dark); 0.47 fold in the data set on HeLa cells (setting [8]); 0.99 fold in the data set with HeLa cells (10 μM, Dark).
As to `COc1ccc(N=Nc2cc(OC)c(OC)c(OC)c2)c(F)c1` [I.4, 1-(2-fluoro-4-methoxyphenyl)-2-(3,4,5-trimethoxyphenyl)diazene], in data set [1], the “εE(λstrong)” value came to 19804 M⁻¹ cm⁻¹. Further, the λiso in data set [1] was 455 nm. This compound also had a λstrong in data set [1] of 365 nm. The “τ, reversion time” value in data set [2] amounted to 119 min. For the same compound, the mean fold growth in the data set with HeLa cells (setting [3]) stood at 0.98 fold; in the data set with HeLa cells (100 nM, Dark), 0.93 fold; with HeLa cells (setting [4]), 0.78 fold; in the data set with HeLa cells (500 nM, Dark), 0.93 fold; with HeLa cells (setting [5]), 0.53 fold; in the data set on HeLa cells (1 μM, Dark), 0.89 fold. Besides, the mean fold growth amounted to 0.48 fold in the data set on HeLa cells (setting [6]); 0.94 fold in the data set with HeLa cells (2 μM, Dark); 0.44 fold with HeLa cells (setting [7]); 0.94 fold with HeLa cells (5 μM, Dark); 0.36 fold in the data set with HeLa cells (setting [8]); 0.78 fold in the data set on HeLa cells (10 μM, Dark).
For the compound `COc1ccc(N=Nc2cc(OC)c(OC)c(OC)c2)cc1` [I.6, 1-(4-methoxyphenyl)-2-(3,4,5-trimethoxyphenyl)diazene, reference compound], in data set [1], the “εE(λstrong)” value worked out at 16300 M⁻¹ cm⁻¹. The compound further came in with a λiso in data set [1] of 445 nm. Further, in data set [1], the λstrong is 365 nm. For the same compound, in data set [2], the “τ, reversion time” value is recorded as 83 min. The mean fold growth with HeLa cells (setting [3]) is listed as 0.99 fold; with HeLa cells (100 nM, Dark), 1.00 fold; in the data set on HeLa cells (setting [4]), 1.09 fold; in the data set on HeLa cells (500 nM, Dark), 1.07 fold; in the data set with HeLa cells (setting [5]), 0.79 fold; in the data set with HeLa cells (1 μM, Dark), 0.96 fold. For the same compound, the mean fold growth in the data set with HeLa cells (setting [6]) was 0.47 fold; in the data set with HeLa cells (2 μM, Dark), 0.96 fold; in the data set with HeLa cells (setting [7]), 0.68 fold; with HeLa cells (5 μM, Dark), 0.93 fold; in the data set on HeLa cells (setting [8]) it was 0.37 fold; in the data set with HeLa cells (10 μM, Dark), 0.88 fold.

The record behind these values is patent US20170051149A1, “AZOARYLS AS REVERSIBLY MODULATABLE TUBULIN INHIBITORS” (ECOLE NORMALE SUPERIEURE DE LYON, priority 2014, published 2017).
